In ChEMBL document CHEMBL1152560, “Substituted 2-arylbenzothiazoles as kinase inhibitors: hit-to-lead optimization” (Bioorg Med Chem, 2009):

Legend:
[1] = biological target: Serine/threonine-protein kinase MARK1 (Homo sapiens) (UniProt Q9P0L2); assay: Residual activity of MARK1 at 1 uM by microplate scintillation counting
[2] = biological target: G protein-coupled receptor kinase 6 (Homo sapiens) (UniProt P43250); assay: Residual activity of GRK6 at 10 uM by microplate scintillation counting
[3] = biological target: Death-associated protein kinase 3 (Homo sapiens) (UniProt O43293); assay: Residual activity of DAPK3 at 0.1 uM by microplate scintillation counting
[4] = biological target: T1, Mitogen-activated protein kinase 12 (Homo sapiens) (UniProt P53778); assay: Residual activity of p38-gamma at 0.1 uM by microplate scintillation counting
T1 sequence (whole entry): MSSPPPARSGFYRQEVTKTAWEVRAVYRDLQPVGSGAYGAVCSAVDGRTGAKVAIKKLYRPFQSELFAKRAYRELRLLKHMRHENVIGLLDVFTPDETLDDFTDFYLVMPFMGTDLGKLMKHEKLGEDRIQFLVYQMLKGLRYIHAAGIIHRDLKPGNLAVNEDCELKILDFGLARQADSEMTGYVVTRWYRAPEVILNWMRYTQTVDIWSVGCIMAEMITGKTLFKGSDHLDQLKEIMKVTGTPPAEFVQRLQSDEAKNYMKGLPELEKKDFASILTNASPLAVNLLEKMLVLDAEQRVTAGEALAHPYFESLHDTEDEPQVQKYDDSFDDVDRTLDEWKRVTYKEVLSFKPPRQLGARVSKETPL

[5] = biological target: T2, Protein kinase C zeta type (Homo sapiens) (UniProt Q05513); assay: Residual activity of PKCzeta at 1 uM by microplate scintillation counting
T2 sequence (whole entry): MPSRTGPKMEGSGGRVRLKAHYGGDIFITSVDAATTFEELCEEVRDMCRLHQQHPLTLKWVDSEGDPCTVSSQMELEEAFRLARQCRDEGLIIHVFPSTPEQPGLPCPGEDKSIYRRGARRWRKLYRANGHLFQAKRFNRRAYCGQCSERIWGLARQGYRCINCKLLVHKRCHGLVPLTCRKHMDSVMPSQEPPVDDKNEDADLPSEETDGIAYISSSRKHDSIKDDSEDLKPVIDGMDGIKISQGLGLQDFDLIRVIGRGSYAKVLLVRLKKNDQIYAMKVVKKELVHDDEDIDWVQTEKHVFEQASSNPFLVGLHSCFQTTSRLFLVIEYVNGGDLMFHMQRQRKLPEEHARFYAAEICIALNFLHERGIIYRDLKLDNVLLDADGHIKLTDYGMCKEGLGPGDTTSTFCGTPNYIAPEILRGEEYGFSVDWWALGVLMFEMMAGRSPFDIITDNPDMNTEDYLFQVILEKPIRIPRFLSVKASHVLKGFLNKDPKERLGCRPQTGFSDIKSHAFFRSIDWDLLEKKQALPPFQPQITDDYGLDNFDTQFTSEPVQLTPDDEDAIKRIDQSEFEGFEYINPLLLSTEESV

[6] = biological target: Serine/threonine-protein kinase MARK1 (Homo sapiens) (UniProt Q9P0L2); assay: Residual activity of MARK1 at 10 uM by microplate scintillation counting
[7] = biological target: Dual specificity mitogen-activated protein kinase kinase 1 (Homo sapiens) (UniProt Q02750); assay: Residual activity of wild type MEK1 at 10 uM by microplate scintillation counting
[8] = biological target: Tyrosine-protein kinase Yes (Homo sapiens) (UniProt P07947); assay: Residual activity of YES at 0.1 uM by microplate scintillation counting
[9] = biological target: ALK tyrosine kinase receptor (Homo sapiens) (UniProt Q9UM73); assay: Residual activity of ALK at 0.1 uM by microplate scintillation counting
[10] = biological target: Mitogen-activated protein kinase 14 (Homo sapiens) (UniProt Q16539); assay: Residual activity of p38alpha at 10 uM by microplate scintillation counting
[11] = biological target: Casein kinase II subunit alpha' (Homo sapiens) (UniProt P19784); assay: Residual activity of CK2alpha2 at 10 uM by microplate scintillation counting
[12] = biological target: Eukaryotic translation initiation factor 2-alpha kinase 1 (Homo sapiens) (UniProt Q9BQI3); assay: Residual activity of HRI at 1 uM by microplate scintillation counting
[13] = biological target: Tyrosine-protein kinase ABL1 (Homo sapiens) (UniProt P00519); assay: Residual activity of wild type ABL1 at 0.1 uM by microplate scintillation counting
[14] = biological target: T3, Discoidin domain-containing receptor 2 (Homo sapiens) (UniProt Q16832); assay: Residual activity of DDR2 at 0.1 uM by microplate scintillation counting
T3 sequence (whole entry): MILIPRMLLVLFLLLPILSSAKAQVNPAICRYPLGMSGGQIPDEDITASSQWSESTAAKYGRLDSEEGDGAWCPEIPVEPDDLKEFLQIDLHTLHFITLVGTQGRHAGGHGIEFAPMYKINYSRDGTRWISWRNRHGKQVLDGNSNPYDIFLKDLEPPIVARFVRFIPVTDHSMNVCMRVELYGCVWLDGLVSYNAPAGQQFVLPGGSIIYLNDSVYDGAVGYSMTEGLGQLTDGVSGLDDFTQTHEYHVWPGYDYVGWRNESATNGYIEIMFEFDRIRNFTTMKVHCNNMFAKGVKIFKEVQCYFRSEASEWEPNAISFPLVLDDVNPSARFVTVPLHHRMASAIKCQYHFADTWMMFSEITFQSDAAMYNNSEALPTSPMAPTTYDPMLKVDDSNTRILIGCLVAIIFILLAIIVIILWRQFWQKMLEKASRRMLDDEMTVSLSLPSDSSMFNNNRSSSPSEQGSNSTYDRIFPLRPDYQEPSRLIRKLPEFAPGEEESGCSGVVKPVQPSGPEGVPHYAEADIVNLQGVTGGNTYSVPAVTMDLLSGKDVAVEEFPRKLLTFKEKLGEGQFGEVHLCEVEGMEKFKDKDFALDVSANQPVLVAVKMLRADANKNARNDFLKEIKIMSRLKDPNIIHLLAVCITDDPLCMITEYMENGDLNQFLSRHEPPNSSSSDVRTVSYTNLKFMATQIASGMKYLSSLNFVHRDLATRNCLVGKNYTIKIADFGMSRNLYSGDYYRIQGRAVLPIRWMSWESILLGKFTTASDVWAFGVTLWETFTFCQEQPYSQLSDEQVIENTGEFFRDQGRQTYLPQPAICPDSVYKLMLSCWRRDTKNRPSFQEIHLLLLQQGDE

[15] = biological target: Serine/threonine-protein kinase PAK 1 (Homo sapiens) (UniProt Q13153); assay: Residual activity of PAK1 at 1 uM by microplate scintillation counting
[16] = biological target: Ribosomal protein S6 kinase beta-2 (Homo sapiens) (UniProt Q9UBS0); assay: Residual activity of S6Kbeta at 0.1 uM by microplate scintillation counting
Chain of Ribosomal protein S6 kinase beta-2 (Homo sapiens) (Q9UBS0 whole entry): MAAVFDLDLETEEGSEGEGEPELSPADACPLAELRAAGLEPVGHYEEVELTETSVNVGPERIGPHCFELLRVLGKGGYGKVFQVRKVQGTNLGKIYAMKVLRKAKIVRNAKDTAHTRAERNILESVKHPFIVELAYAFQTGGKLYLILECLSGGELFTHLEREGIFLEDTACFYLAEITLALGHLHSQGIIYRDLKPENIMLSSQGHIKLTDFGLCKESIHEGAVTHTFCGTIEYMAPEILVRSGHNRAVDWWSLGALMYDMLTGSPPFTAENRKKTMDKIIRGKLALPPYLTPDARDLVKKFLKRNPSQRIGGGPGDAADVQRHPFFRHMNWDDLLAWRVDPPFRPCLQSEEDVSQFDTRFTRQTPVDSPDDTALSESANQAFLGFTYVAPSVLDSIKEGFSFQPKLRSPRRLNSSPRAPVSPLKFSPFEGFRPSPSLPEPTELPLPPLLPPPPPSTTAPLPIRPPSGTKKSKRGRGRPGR

Chain of Tyrosine-protein kinase ABL1 (Homo sapiens) (P00519 whole entry, the tested form may be a part): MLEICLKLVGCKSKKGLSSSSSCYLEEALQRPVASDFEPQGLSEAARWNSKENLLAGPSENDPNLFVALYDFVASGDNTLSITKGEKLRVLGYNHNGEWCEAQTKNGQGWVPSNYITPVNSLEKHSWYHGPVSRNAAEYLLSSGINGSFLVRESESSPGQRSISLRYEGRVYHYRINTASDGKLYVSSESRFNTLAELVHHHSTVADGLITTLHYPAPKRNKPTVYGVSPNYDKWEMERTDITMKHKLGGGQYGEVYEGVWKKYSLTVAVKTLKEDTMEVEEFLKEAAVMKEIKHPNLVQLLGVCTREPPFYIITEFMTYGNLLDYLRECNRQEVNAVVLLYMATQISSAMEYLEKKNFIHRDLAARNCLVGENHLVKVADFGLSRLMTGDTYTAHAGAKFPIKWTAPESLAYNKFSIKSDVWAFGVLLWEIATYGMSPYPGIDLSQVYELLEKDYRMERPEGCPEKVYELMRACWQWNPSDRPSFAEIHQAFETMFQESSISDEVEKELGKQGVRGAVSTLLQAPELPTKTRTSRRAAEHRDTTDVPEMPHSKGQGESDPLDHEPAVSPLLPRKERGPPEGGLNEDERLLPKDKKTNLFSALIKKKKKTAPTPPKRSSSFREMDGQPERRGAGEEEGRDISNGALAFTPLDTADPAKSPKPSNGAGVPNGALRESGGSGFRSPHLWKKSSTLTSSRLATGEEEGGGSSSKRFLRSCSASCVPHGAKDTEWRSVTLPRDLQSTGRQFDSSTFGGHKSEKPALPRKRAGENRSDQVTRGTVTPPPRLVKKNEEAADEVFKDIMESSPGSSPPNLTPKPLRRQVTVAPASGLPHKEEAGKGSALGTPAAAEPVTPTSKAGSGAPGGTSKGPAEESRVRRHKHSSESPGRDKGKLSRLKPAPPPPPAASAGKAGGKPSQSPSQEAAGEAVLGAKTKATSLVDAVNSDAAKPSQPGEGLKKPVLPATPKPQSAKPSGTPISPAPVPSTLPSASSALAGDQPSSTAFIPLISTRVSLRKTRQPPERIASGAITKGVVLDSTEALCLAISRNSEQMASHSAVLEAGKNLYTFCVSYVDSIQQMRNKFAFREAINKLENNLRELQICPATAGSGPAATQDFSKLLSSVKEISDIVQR
Chain of Tyrosine-protein kinase Yes (Homo sapiens) (P07947 2-543 limits assumed): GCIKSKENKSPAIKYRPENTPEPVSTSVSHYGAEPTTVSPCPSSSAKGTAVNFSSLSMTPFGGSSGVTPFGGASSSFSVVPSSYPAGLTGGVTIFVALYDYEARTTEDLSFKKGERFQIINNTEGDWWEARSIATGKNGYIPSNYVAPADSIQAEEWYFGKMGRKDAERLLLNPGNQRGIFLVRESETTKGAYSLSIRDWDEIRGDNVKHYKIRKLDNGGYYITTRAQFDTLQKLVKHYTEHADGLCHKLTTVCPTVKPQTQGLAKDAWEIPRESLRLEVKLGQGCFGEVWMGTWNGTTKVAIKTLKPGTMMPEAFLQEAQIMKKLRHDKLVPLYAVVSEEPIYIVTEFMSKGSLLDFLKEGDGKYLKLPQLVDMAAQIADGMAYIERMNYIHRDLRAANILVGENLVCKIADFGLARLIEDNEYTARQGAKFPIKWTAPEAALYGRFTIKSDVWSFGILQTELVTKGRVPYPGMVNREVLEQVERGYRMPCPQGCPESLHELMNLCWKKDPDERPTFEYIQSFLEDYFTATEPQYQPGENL
Chain of Dual specificity mitogen-activated protein kinase kinase 1 (Homo sapiens) (Q02750 whole entry): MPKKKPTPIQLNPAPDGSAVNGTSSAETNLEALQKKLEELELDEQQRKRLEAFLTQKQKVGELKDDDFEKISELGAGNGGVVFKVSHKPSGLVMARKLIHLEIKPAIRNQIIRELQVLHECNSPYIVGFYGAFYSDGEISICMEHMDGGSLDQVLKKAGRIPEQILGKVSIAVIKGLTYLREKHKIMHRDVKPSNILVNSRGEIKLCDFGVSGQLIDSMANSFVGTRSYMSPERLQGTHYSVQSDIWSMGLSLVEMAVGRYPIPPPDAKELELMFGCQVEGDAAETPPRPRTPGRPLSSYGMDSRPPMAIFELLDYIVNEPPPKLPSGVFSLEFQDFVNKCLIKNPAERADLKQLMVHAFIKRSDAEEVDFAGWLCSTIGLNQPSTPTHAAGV
Chain of Casein kinase II subunit alpha' (Homo sapiens) (P19784 whole entry, looked up): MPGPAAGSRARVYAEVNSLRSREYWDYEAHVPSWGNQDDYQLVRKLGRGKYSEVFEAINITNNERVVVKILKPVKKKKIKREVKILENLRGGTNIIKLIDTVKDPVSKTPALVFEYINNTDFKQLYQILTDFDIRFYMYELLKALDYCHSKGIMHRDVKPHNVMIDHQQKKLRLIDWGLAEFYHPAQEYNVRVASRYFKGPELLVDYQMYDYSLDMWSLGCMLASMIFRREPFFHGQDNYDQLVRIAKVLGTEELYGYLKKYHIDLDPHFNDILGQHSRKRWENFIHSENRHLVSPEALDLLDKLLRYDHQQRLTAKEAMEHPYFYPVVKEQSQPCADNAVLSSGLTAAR
Chain of G protein-coupled receptor kinase 6 (Homo sapiens) (P43250 whole entry, looked up): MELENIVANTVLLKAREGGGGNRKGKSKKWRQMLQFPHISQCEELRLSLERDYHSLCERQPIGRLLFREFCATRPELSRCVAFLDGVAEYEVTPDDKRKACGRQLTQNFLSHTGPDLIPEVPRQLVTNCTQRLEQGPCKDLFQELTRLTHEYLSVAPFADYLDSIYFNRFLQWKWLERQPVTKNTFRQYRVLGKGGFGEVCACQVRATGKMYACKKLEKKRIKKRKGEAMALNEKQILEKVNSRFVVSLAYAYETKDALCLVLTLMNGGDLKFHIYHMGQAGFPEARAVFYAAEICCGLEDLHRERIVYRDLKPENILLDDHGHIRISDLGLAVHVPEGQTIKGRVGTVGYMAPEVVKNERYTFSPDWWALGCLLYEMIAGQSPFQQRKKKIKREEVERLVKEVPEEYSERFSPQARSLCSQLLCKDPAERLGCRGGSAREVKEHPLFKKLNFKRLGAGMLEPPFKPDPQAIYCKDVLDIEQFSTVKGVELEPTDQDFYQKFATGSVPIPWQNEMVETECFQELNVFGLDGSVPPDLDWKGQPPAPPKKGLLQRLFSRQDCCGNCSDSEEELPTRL
Chain of ALK tyrosine kinase receptor (Homo sapiens) (Q9UM73 19-1620 limits assumed): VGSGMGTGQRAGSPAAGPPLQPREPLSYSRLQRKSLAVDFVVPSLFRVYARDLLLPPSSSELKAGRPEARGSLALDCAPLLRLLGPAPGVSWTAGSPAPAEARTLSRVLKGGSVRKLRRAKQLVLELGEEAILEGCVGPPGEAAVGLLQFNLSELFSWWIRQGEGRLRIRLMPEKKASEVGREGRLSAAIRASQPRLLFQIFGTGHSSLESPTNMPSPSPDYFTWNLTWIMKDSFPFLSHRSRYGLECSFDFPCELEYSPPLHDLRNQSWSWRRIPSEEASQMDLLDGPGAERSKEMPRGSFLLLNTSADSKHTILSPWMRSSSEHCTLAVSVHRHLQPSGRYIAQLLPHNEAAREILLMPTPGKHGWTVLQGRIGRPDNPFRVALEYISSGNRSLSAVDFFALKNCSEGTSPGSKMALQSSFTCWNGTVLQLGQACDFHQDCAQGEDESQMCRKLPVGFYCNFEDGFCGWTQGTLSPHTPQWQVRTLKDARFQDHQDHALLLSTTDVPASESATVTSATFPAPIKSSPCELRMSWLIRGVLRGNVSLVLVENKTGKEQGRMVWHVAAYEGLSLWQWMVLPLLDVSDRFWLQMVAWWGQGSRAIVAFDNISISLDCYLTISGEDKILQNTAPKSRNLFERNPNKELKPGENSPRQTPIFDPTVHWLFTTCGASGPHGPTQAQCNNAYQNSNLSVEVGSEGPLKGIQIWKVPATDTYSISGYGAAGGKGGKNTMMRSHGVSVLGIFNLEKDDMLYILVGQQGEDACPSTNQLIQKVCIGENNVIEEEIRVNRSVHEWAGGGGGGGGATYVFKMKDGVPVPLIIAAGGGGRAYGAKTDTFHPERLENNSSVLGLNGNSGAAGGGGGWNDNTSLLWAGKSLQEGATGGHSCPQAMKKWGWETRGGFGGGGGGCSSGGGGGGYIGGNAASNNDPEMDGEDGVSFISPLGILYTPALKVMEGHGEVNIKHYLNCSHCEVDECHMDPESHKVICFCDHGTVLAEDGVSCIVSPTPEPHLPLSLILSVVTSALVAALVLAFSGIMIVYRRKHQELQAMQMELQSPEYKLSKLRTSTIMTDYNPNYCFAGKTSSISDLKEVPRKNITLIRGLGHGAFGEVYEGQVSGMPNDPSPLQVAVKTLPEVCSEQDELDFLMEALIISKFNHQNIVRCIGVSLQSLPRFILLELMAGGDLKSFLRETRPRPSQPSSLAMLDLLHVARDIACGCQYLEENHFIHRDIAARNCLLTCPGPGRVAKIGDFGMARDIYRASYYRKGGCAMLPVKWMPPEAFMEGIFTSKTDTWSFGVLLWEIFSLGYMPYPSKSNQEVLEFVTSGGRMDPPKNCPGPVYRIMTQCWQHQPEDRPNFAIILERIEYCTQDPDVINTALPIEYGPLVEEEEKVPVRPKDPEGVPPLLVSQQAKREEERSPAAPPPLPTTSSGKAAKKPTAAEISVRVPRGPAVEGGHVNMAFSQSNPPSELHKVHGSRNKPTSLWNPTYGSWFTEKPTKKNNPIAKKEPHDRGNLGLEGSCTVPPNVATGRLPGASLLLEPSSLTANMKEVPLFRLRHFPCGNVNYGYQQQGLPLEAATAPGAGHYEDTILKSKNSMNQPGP

residual activity [1]	residual activity [2]	residual activity [4]	residual activity [5]	residual activity [6]	residual activity [7]	residual activity [8]	residual activity [9]	residual activity [10]	residual activity [11]	residual activity [12]	residual activity [13]	residual activity [14]	residual activity [15]	residual activity [16]	Compound	residual activity [3]
86%	105%	86%	109%	112%	15%	98%	102%	325%	97%	108%	97%	97%	101%	47%	COc1cc2c(Oc3ccc(-c4nc5ccccc5s4)cc3)ncnc2cc1OCCCN1CCCC1	89%
86%	91%	93%	92%	124%	26%	93%	106%	327%	98%	108%	94%	88%	104%	42%	COc1cc2c(Oc3ccc(-c4nc5ccccc5s4)cc3)ncnc2cc1OCCCN1CCN(C)CC1	75%
90%	104%	86%	107%	112%	3%	80%	114%	320%	116%	87%	100%	93%	91%	55%	COc1cc2c(Oc3ccc(-c4nc5ccccc5s4)cc3F)ncnc2cc1OCCCN1CCN(C)CC1	74%
